Here are results for two compounds from patent US9120746B2, “Crystalline form of a 3-phenoxymethylpyrrolidine compound” (Theravance Biopharma R&D IP, LLC, priority 2010, dated 2015).

Where a name gives a salt, the structure may show the parent alone. Read-outs that look alike come from different tables or passages of the source.

The target in series [1] is T1, hSERT (Homo sapiens, UniProt P31645).
T1 construct: expressed in transfected cells; host or cells: HEK-293 derived cell line, stably transfected
In words: hSERT membrane radioligand binding assay (3H-citalopram). The settings on record: 1.0 nM 3H-citalopram, HEK-293 hSERT membranes; read-out: SERT pKi (converted). The procedure: (§1) Membrane radioligand binding assays were used to measure inhibition of labeled ligand (^3H-citalopram or ^3H-nisoxetine or ^3H-WIN35428) binding to membranes prepared from cells expressing the respective human recombinant transporter (hSERT or hNET or hDAT) in order to determine the pKi values of test compounds at the transporters.
(§2) Recombinant human embryonic kidney (HEK-293) derived cell lines stably transfected with hSERT or hNET, respectively, were grown in Dulbecco's Modified Eagle's Medium (DMEM) medium supplemented with 10% dialyzed FBS (for hSERT) or FBS (for hNET), 100 μg/ml penicillin, 100 μg/ml streptomycin, 2 mM L-glutamine and 250 μg/ml of the aminoglycoside antibiotic G418, in a 5% CO2 humidified incubator at 37° C. When cultures reached 80% confluence, the cells were washed thoroughly in PBS (without Ca^2+ and Mg^2+) and lifted with 5 mM EDTA in PBS. […] Protein concentration of the membrane suspension was determined using a Bio-Rad Bradford Protein Assay kit. […]
(§3) Stock solutions (10 mM in DMSO) of test compound were prepared and serial dilutions made using Dilution Buffer (50 mM Tris-HCl, 120 mM NaCl, 5 mM KCl, pH 7.4, 0.1% BSA, 400 μM ascorbic acid). Non-specific radioligand binding was determined in the presence of 1 μM duloxetine, 1 μM desipramine or 10 μM GBR12909 (each in Dilution Buffer) for the hSERT, hNET or hDAT assays, respectively. […]

Series [2] deals with T2, hNET (Homo sapiens, UniProt P23975).
T2 construct: expressed in transfected cells; host or cells: HEK-293 derived cell line, stably transfected
In words: hNET membrane radioligand binding assay (3H-nisoxetine). Conditions: 1.0 nM 3H-nisoxetine, HEK-293 hNET membranes; read-out: NET pKi (converted). The procedure: as §1, §2, §3

Series [3] addresses T1, hSERT. In words: hSERT neurotransmitter uptake assay (3H-5-HT). The format is cell-based. Conditions: 3H-5-HT 20 nM, HEK-293 hSERT cells; read-out: serotonin reuptake inhibition pIC50 (converted). As for the experimental part:
(§4) Neurotransmitter uptake assays were used to measure inhibition of ^3H-serotonin (^3H-5-HT), ^3H-norepinephrine (^3H-NE), and ^3H-dopamine (^3H-DA) uptake into cells expressing the respective transporter (hSERT, hNET or hDAT) in order to determine the pIC50 values of test compounds at the transporters.
(§5) HEK-293 derived cell lines stably-transfected with hSERT, hNET, or hDAT, respectively, were grown in DMEM medium supplemented with 10% dialyzed FBS (for hSERT) or FBS (for hNET and hDAT), 100 μg/ml penicillin, 100 μg/ml streptomycin, 2 mM L-glutamine and 250 μg/ml of the aminoglycoside antibiotic G418 (for hSERT and hNET) or 800 ug/ml (for hDAT), in a 5% CO2 humidified incubator at 37° C. When cultures reached 80% confluence, the cells were washed thoroughly in PBS (without Ca^2+ and Mg^2+) and lifted with 5 mM EDTA in PBS. […]
(§6) Neurotransmitter uptake assays were performed in a 96-well assay plate in a total volume of 400 μl assay buffer (Krebs-Ringer bicarbonate buffer containing HEPES (10 mM), CaCl2 (2.2 mM), ascorbic acid (200 μM) and pargyline (200 μM), pH 7.4) with 1.5×10^4 and 2.5×10^4 cells, for SERT, NET, and DAT, respectively. […] Non-specific neurotransmitter uptake was determined in the presence of 2.5 μM duloxetine, 2.5 μM desipramine, or 10 uM GBR-12909 (each in Dilution Buffer) for the hSERT, hNET, or hDAT assays, respectively. […]

The target of series [4] is T2, hNET. In words: hNET neurotransmitter uptake assay (3H-NE). The format is cell-based. Conditions: 3H-NE 50 nM, HEK-293 hNET cells; read-out: norepinephrine reuptake inhibition pIC50 (converted). As for the experimental part:
as §4, §5, §6

A short description of series [5]: Aqueous solubility. Conditions: read-out: SOLUBILITY CONCENTRATION
The format is physicochemical. The text has this:
The crystalline hydrochloride salt of the invention has very good aqueous solubility in a wide pH range: […]

Series [6] is described as follows: Solution stability (HPLC peak area). Type of series: physicochemical. The settings on record: for Change in HPLC Peak Area: 10 μm/mL, 3 days at 40° C.
A short description of series [7]: Dynamic moisture sorption (DMS) assessment. Type of series: physicochemical. The settings on record: exposed to up to 85% relative humidity, 25° C. The procedure: A dynamic moisture sorption (DMS) assessment (also known as a moisture sorption-desorption profile) was performed for the crystalline hydrochloride salt of the invention using a VTI atmospheric microbalance, SGA-100 system (VTI Corp., Hialeah, Fla. 33016). A sample size of approximately 2.73 mg was used and the humidity was set at the ambient value at the start of the analysis. The DMS analysis consisted of a scan rate of 5% relative humidity/step over the full humidity range of 2% relative humidity to 90% relative humidity. The DMS run was performed isothermally at 25° C.

A short description of series [8]: Thermal analysis (DSC, TGA). The format is physicochemical. The procedure:
Differential scanning calorimetry (DSC) was performed using a TA Instruments
Model Q-100 module with a Thermal Analyst controller. Data were collected and analyzed using TA Instruments Thermal Solutions software. A 1.22 mg sample of the crystalline hydrochloride salt of the invention was accurately weighed into a covered aluminum pan. After a 5 minute isothermal equilibration period at 22° C., the sample was heated using a linear heating ramp of 10° C./min from 22° C. to 250° C.

Series [9] can be described thus: Deliquescence on exposure to atmospheric moisture. The format is physicochemical. Conditions: exposed to atmospheric moisture.

T1 sequence (P31645 whole entry): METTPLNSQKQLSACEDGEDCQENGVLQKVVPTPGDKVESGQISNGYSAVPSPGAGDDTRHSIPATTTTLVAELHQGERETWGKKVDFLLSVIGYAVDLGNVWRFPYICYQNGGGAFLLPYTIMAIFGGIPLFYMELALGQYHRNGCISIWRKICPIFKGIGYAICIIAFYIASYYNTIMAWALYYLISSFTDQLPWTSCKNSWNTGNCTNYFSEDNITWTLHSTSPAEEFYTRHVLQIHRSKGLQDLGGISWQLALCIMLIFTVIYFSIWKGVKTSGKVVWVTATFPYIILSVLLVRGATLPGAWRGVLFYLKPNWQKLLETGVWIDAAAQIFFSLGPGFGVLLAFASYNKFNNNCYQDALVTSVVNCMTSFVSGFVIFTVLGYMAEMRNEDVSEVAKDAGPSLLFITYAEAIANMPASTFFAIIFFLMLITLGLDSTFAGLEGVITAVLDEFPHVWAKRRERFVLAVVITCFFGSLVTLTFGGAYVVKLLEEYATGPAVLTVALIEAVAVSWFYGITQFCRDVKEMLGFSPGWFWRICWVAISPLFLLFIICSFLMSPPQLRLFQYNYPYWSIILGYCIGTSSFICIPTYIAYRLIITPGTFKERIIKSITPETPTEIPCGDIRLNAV
T2 sequence (P23975 whole entry): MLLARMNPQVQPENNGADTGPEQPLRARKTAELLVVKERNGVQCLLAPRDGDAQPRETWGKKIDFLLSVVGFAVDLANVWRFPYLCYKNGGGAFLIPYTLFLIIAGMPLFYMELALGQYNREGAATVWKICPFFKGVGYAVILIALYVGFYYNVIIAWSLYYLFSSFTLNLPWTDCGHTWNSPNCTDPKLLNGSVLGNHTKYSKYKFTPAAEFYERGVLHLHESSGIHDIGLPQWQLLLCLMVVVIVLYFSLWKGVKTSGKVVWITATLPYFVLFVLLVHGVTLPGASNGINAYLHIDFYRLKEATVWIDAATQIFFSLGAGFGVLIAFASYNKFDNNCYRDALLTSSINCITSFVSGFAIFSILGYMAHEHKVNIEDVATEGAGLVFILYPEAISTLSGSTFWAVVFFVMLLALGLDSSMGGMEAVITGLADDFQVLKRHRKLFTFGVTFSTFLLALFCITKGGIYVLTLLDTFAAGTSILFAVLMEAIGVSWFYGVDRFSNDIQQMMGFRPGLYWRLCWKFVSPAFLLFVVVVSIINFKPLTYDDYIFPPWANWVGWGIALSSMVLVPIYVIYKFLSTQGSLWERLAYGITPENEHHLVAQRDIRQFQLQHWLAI

Take `CC(C)[C@H](Oc1ccc(Cl)cc1)[C@H]1CCNC1` [Example 1 (TFA salt), (S)-3-[(S)-1-(4-Chlorophenoxy)-2-methylpropyl]pyrrolidine]: the Ki in series [1] and in series [2] was at most 10 nM throughout. Moreover, the IC50 in series [3] and in [4] was at most 10 nM each time.
Consider `CC(C)[C@H](Oc1ccc(Cl)cc1)[C@H]1CCNC1` [Example 1, Crystalline Hydrochloride Salt of (S)-3-[(S)-1-(4-Chlorophenoxy)-2-methylpropyl]pyrrolidine], for which the solubility was above 10000 µg/mL in series [5] (aqueous HCl, simulated gastric fluid, HCl pH 2.0); above 10000 µg/mL in series [5] (phosphate buffer, aqueous buffer, 50 mM phosphate-buffered pH 7.4); above 10000 µg/mL in series [5] (un-buffered water). Moreover, the “Change in HPLC Peak Area” value in series [6] (50 mM citric acid pH 2.2) is given as 100.5%; in [6] (50 mM phosphate-buffered pH 7.4), 100.0%. Also, in [6] (room temperature, 30 days, concentrations of 1 mg/mL and 10 mg/mL), the “stability at room temperature” value is “no degradation”. Further, the weight gain result in [7] was “less than 1.0%”. The “thermal stability (DSC)” value in series [8] (heating 10° C./min from 22° C. to 250° C.) is “no significant thermal decomposition below about 200 °C”. For the same compound, the “weight loss (TGA)” value in series [8] (room temperature to 200° C.) is “did not lose any significant amount of weight”. Besides, the deliquescence result in series [9] is given as “not to be deliquescent”.
